According to ChEMBL document CHEMBL4118030, “Polyketides and Anthranilic Acid Possessing 6-Deoxy-α-l-talopyranose from a Streptomyces Species” (J Nat Prod, 2017):
Active and inactive are the calls of the source. The rule behind the calls is not given here.

Tests used:
[1] = target: T1, Indoleamine 2,3-dioxygenase 1 (Homo sapiens, UniProt P14902); assay: Inhibition of ascorbic acid/methylene blue activated recombinant human IDO expressed in Escherichia coli using L-Tryptophan as substrate after 60 mins by spectrophotometric method
Target sequence in this assay (P14902 whole entry): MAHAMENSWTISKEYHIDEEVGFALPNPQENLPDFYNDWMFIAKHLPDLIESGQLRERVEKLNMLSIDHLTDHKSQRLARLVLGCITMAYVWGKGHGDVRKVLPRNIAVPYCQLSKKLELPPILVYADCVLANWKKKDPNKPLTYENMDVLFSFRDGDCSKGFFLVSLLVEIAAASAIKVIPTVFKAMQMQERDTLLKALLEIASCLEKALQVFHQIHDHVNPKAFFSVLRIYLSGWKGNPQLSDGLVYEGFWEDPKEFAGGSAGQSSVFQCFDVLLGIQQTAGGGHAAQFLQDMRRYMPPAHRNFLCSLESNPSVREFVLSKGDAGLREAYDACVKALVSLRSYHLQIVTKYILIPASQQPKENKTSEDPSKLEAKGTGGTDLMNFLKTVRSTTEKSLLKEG

MDA-MB-231 = assay: Antiproliferative activity against human MDA-MB-231 cells after 48 hrs by MTT assay; assay type: functional, cell-based; conditions: MDA-MB-231, 48 h
HeLa [2] = assay: Antiproliferative activity against human HeLa cells after 48 hrs by MTT assay; assay type: functional, cell-based
SW480 = assay: Antiproliferative activity against human SW480 cells after 48 hrs by MTT assay; assay type: functional, cell-based; conditions: SW480, 48 h
HL-60 = assay: Antiproliferative activity against human HL60 cells after 48 hrs by EZ-Cytox cell viability assay; assay type: functional, cell-based; conditions: HL-60, 48 h
U2OS = assay: Antiproliferative activity against human U2OS cells after 48 hrs by MTT assay; assay type: functional, cell-based
[3] = target: T1, Indoleamine 2,3-dioxygenase 1; assay: Inhibition of ascorbic acid/methylene blue activated recombinant human IDO expressed in Escherichia coli up to 10 uM using L-Tryptophan as substrate after 60 mins by spectrophotometric method relative to control
Target sequence in this assay (P14902 whole entry, looked up): as the sequence (P14902 whole entry) above

HeLa [4] = assay: Induction of autophagosome accumulation in human HeLa cells harboring RFP-GFP-LC3 assessed as GFP-LC3 puncta formation at 30 uM after 24 hrs by DAPI staining based fluorescence microscopic method; assay type: functional, cell-based
HeLa [5] = assay: Induction of autophagosome accumulation in human HeLa cells harboring RFP-GFP-LC3 assessed as increase in p62 level after 24 hrs by immunoblot method; assay type: functional, cell-based
HeLa [6] = assay: Induction of autophagosome accumulation in human HeLa cells harboring RFP-GFP-LC3 assessed as increase in LC3-2 level after 24 hrs by immunoblot method; assay type: functional, cell-based

Compound | IC50 [1] | IC50 (MDA-MB-231) | IC50 (HeLa [2]) | IC50 (SW480) | IC50 (HL-60) | IC50 (U2OS) | inhibition [3] | Activity (HeLa [4]) | Activity (HeLa [5]) | Activity (HeLa [6])
CC(=O)NC1=CC(=O)c2cc(O[C@@H]3O[C@@H](C)[C@@H](O)[C@@H](O)[C@H]3O)c(C)cc2C1=O | 0.56 µM | 72.1 µM | 35 µM | 9.3 µM | 7.1 µM | 33.6 µM | – | – | – | –
CC1=CC(=O)c2ccccc2C1=O [MENADIONE] | 0.37 µM | – | – | – | – | – | – | – | – | –
COc1cccc2c1C(=O)c1c(O)c3c(c(O)c1C2=O)C[C@@](O)(C(=O)CO)C[C@@H]3O[C@H]1C[C@H](N)[C@H](O)[C@H](C)O1 [DOXORUBICIN] | – | 0.369 µM | 0.606 µM | 0.406 µM | 0.532 µM | 0.563 µM | – | – | – | –
C/C1=C/C=C\C=C\[C@H](C)[C@@H](O)CC(=O)/C(C)=C/C[C@H](O)/C=C/[C@H](C)[C@H](O)[C@@H](C)/C=C(\C)C(=O)c2c(O)c(C)cc3c2C(=O)C(Cl)=C(NC1=O)C3=O [NAPHTHOMYCIN A] | 0.44 µM | 34.6 µM | 30.2 µM | 7.6 µM | 2.1 µM | 20.5 µM | – | – | – | –
C/C=C(\C)[C@H](O)[C@H](C)/C=C(C)/C=C/C/C(C)=C/Cc1nc(OC)c(OC)c(O)c1C [PIERICIDIN A] | – | > 100 µM | 84.9 µM | 82.1 µM | 82.1 µM | 91.5 µM | < 50% | Active | Dose-dependent effect | Dose-dependent effect
C/C(=C\[C@H](C)[C@@H](O)[C@@H](C)/C=C/[C@@H](O)C/C=C(\C)C(=O)C[C@H](O)[C@@H](C)/C=C/C=C\C=C/C(=O)Nc1c(Cl)c(O[C@@H]2O[C@@H](C)[C@@H](O)[C@@H](O)[C@H]2O)c2cc(O)c(C)cc2c1O)C(=O)O | – | > 100 µM | > 100 µM | 94.3 µM | 91.4 µM | > 100 µM | < 50% | – | – | –
C/C(=C\[C@H](C)[C@@H](O)[C@@H](C)/C=C/[C@@H](O)C/C=C(\C)C(=O)C[C@H](O)[C@@H](C)/C=C/C=C\C=C/C(=O)NC1=C(Cl)C(=O)c2cc(O)c(C)cc2C1=O)C(=O)O | – | > 100 µM | 71.4 µM | 78.1 µM | 42.2 µM | > 100 µM | – | – | – | –
CNc1ccccc1C(=O)O[C@@H]1O[C@@H](C)[C@@H](O)[C@@H](O)[C@H]1O | – | > 100 µM | > 100 µM | > 100 µM | > 100 µM | > 100 µM | < 50% | – | – | –
C/C=C(\C)[C@H](O)[C@H](C)/C=C(C)/C=C/C/C(C)=C/Cc1nc(OC)c(OC)c(O[C@@H]2O[C@@H](C)[C@@H](O)[C@@H](O)[C@H]2O)c1C | – | 35.1 µM | 27.3 µM | 23 µM | 24.8 µM | 29.6 µM | < 50% | Active | Dose-dependent effect | Dose-dependent effect
